Experimental data: patent US9561168B2, “Oral care compositions” (Colgate-Palmolive Company, priority 2011, dated 2017)

What was measured:
[1] = test system: five species biofilm (A. viscosus, Lactobacillus casei, Streptococcus oralis, Fusobacterium nucleatum, Veilonella parvula); assay: Mixed (five) species biofilm test on saliva-coated HAP disks; type: cell-based; conditions: 250 ppm of ε-polylysine
Procedure: Mixed species biofilms are preformed on saliva-coated HAP disks (scHAP). Following saliva coating, disks are inoculated with 1 ml of mixed species culture from the continuous culture chemostat described above diluted to an OD610 of ˜0.2 in 0.5×TSB. Plates are incubated for 48 h at 37° C. to allow biofilms to form.
Disks containing preformed biofilms are transferred to a fresh 24-well culture plate and 1 ml of sterile 0.5×TSB medium containing the indicted concentration of test compound is added to each disk. Plates are incubated for 1 h at 37° C. with gentle agitation. […] Plates are sonicated for 2 min to pellet any residual HAP and supernatants are removed to fresh plates so that absorbance could be read at 610 nm.
All samples are tested in triplicate and the average of the three wells determined.

[2] = test system: other oral bacterial species tested; assay: Antimicrobial activity against other oral bacterial species; type: cell-based; conditions: any other oral bacterial species tested (other than A. viscosus)
Actinomyces viscosus = assay: Minimum inhibitory concentration (MIC) against Actinomyces viscosus; type: cell-based
Procedure: (§1) Mixed species bacteria are grown as follows: Actinomyces viscosus (ATCC #31346) is grown in trypticase soy broth supplemented with 0.6% yeast extract (TSB-YE) at 37° C., static culture. For mixed species assays, the source of bacteria is a continuous culture chemostat inoculated with A. viscosus, Lactobacillus casei (ATCC #334), Streptococcus oralis (ATCC #35037), Fusobacterium nucleatum (ATCC #10953), and Veilonella parvula (ATCC #17745). This mixed culture is maintained in a specialized complex medium in a continuous culture chemostat at 37° C.
Gallium nitrate is assessed in oral biofilm models. […] The advantage of gallium over other agents is that it appears to target the relatively starved bacteria found deeper in the biofilms that are usually less accessible to traditional antimicrobial agents.

[3] = test system: single species Actinomyces viscosus biofilms; assay: Inhibition of single species Actinomyces viscosus biofilm formation; type: cell-based; conditions: single species A. viscosus biofilm
Procedure: as §1

[4] = antimicrobial agents currently in use in oral formulations; organism not stated; cited from earlier work

Row | Compound | inhibition of multispecies biofilm formation [1] | antimicrobial activity against other oral bacterial species [2] | minimum inhibitory concentration (MIC) (Actinomyces viscosus) | concentration able to inhibit formation of single species biofilms [3] | MTC values [4]
1 | ε-Polylysine | less than 20% | does not have antimicrobial activity | < 1 ppm | < 1 ppm | –
2 | Oc1cc(Cl)ccc1Oc1ccc(Cl)cc1Cl [triclosan] | – | – | – | – | less than 10 ppm
3 | O=[N+]([O-])[O-].O=[N+]([O-])[O-].O=[N+]([O-])[O-].[Ga+3] [gallium nitrate] | – | – | approximately 60 ppm | 30 ppm | –
